This note sets out measurements from patent US8153784B2, “Imaging of enzyme activity” (The General Hospital Corporation, priority 2004, dated 2012).

SMILES strings stand for the structures.

In assay [1] the target is T1, horseradish peroxidase (HRP) (Armoracia rusticana, UniProt P00433).
T1 sequence (P00433 31-338): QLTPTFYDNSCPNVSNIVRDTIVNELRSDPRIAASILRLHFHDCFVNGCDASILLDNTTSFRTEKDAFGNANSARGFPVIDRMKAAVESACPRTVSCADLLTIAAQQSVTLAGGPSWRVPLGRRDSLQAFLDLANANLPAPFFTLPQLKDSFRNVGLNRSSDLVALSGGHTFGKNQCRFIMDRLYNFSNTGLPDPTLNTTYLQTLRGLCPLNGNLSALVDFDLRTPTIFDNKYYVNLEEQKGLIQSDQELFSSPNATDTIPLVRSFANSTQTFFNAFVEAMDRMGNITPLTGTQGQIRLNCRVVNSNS
Briefly: Pseudo-first-order rate constants of HRP-mediated conversion (relaxation times over time, 0.47 T). In kind it is biochemical, horseradish. On the set-up: purchased Sigma-Aldrich type XII (catalogue number not given). On the procedure:
Kinetics of the samples were observed by measuring T1 and T2 at 0.47 T and 40° C. of the samples over at least a 24 hour period. At different time points, 1 M of sodium azide (final concentration=0.17 M) was added to stop the enzyme mediated reaction. The resultant progress curve was fitted with an empirical mathematical model and analyzed according to the Guggenheim method to obtain the pseudo-first-order rate constants (Guggenheim E A. Philos. Mag. 1926; 2:538).
An important property of a suitable substrate for an enzyme is the kinetics of enzymatic reaction. To determine the utility of the paramagnetic complexes as suitable substrates for human myeloperoxidase (MPO), we measured the pseudo-first-order rate constant of these substrates in MPO, and compared to the same substrates' reactions in Horse Radish Peroxidase (HRP) by monitoring the changes in relaxation time over time. […] The results shown were obtained using T1 measurements. T2 measurements yielded nearly identical results. The results are presented as mean±SD. N/A=not applicable.

In assay [2] the target is T2, human neutrophil MPO (Homo sapiens, UniProt P05164).
T2 construct: purchased BioDesign Inc
T2 sequence (P05164 279-745 limits assumed): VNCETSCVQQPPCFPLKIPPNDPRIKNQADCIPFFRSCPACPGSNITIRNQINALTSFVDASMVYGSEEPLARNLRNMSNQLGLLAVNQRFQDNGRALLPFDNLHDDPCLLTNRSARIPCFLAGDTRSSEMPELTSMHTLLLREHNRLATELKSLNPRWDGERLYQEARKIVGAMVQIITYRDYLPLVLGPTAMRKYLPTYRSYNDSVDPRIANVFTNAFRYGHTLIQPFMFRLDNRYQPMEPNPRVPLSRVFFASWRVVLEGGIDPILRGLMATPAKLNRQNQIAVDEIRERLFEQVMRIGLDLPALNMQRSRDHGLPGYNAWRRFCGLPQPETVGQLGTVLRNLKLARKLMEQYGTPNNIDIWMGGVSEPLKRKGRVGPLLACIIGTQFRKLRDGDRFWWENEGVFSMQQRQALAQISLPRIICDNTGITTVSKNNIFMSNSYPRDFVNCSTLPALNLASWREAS
T2 sequence (P05164 165-273 limits assumed): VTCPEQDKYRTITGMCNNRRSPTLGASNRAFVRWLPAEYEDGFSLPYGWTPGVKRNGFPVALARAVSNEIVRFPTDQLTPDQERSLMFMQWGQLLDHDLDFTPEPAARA
Briefly: MPO-mediated polymerization of DOTA(Gd) substrates: T1/T2 relaxivity change. Format: biochemical. The note with it: for maximum ratio of relaxivity increase between MPO-converted product and substrate: longitudinal and transverse, 1300-1400 U of enzyme activity. On the procedure: Reactions with HRP and MPO were carried out at room temperature in the presence of 0.5-1 mM substrate dissolved in 0.5 ml PBS containing H2O2 (2 mM). Reaction was initiated by adding an aliquot containing the enzyme (either HRP or MPO) and vortexing. After at least a 30 min incubation period T1 was measured using inversion-recovery pulse sequence Bruker Minispec (Buker Analytics, North Bellirica Mass.) at 0.47 T (20 MHz). Size-exclusion HPLC of reaction products was performed on TSK G3000SWXL macroporous column (Supelco) eluted with 0.1 M triethylammonium acetate, pH 7.0 at 1 ml/min.
(§1) Standard 96-well plates were prepared and imaged on a 1.5 T whole body clinical General Electric Signa MRI scanner utilizing a standard 3 inch surface coil. Inversion recovery sequences were used to measure T1 relaxation and spin echo sequences were utilized to measure T2 relaxation. T2 weighted images were obtained with TR=5000 ms and TE=100 ms with a fast spin echo sequence. T1 weighted images were obtained with spin echo sequences with the following parameters: TR=100, 200, 350, or 500, TE=11. For the Matrigel™ experiments, a relatively T2 weighted image was obtained at TR=300 ms and TE=200 ms. Single-exponential models were used to obtain T1 and T2. The relaxivities were computed by normalizing relaxation rates to the concentration of gadolinium in each sample, obtained by inductive coupled plasma (ICP) analysis performed by Galbraith Laboratories.
To determine the effect of myeloperoxidase on the substrates, we performed T1 and T2 relaxivity measurements in aqueous solutions, with and without MPO and hydrogen peroxide, at 0.47 T and 1.5 T (the results are summarized in FIGS. 3A and 3B for tyramide-DOTA(Gd) and FIGS. 4A and 4B for 5-HT-DOTA(Gd)). For reference, the two substrates were also reacted with HRP (solid symbols in FIGS. 3A and 3B and FIGS. 4A and 4B).

Assay [3] deals with T3, MPO (Homo sapiens, UniProt P05164).
T3 construct: purchased BioDesign Inc
T3 sequence (P05164 279-745 limits assumed): as the sequence (P05164 279-745 limits assumed) above
T3 sequence (P05164 165-273 limits assumed): as the sequence (P05164 165-273 limits assumed) above
Briefly: Matrigel tissue model containing MPO, MR imaging at 1.5 T. In kind it is biochemical. On the procedure: as §1
We also designed a tissue model system with Matrigel™ to confirm that the substrates can delineate tissues containing MPO. Substrate was added on top of Matrigel™ containing MPO, and imaged at 1.5 T one hour after sample preparation (to ensure substrate conversion), and at 24 hours after sample preparation. Utilizing this tissue model system, and using glucose/glucose oxidase as the hydrogen peroxide generating system (peroxide is released by neutrophils in vivo), we observed an MPO-specific change in the MR signal (see FIG. 8) that is visible on T1-weighted, T2-weighted, and inversion recovery images, at 1 hour after sample preparation. The changes continued to increase over time, and at 24 hours, there is a 30% increase in the longitudinal relaxation rate (5.3 s^−1 to 6.9 s^−1) and a 20% increase in the transverse relaxation rate (8.8 s^−1 to 10.6 s^−1). […] No such change was identified in control systems where MPO was not present (not shown) or glucose oxidase was not present (see the first cell in FIG. 8).

[4] abbreviates: Matrigel/substrate interface, at 24 hours.

With `CC(C(=O)NCC(=O)NCCc1c[nH]c2ccc(O)cc12)N1CCN(CC(=O)[O-])CCN(CC(=O)[O-])CCN(CC(=O)[O-])CC1.[Gd+3]` (centres unmarked) [5-HT-DOTA(Gd), Glycylmethyl DOTA(Gd) 5-Hydroxytryptamide], in assay [1], the “fraction of the final relaxation rate obtained within the first 5 minutes” value was “more than 80%”. For the same compound, the “Pseudo first-order rate constant” value in assay [1] (from T1 measurements, mean±SD) amounted to 0.01 s⁻¹. For the same compound, the “maximum ratio of relaxivity increase between MPO-converted product and substrate” value in assay [2] (0.47 T) is recorded as 1.9-2 times. For the same compound, in assay [2] (1.5 T), the “maximum ratio of relaxivity increase between MPO-converted product and substrate” value is 1.6-1.7 times. For the same compound, the “T1 shortening relative to that by HRP” value in assay [2] (10 μL of MPO (1.6 mg/ml) vs 1 μL HRP (4 mg/ml)) was found to be 100%. Besides, in assay [2] (250-650 U MPO), the “T1 shortening relative to HRP-mediated T1 shortening” value was “Approximately 70%”. Besides, the “relaxivity shortening found in the relaxation experiments” value in assay [2] (1300-2000 U) is reported as about 70%. Besides, the “increase in relaxivity of polymer product” value in assay [2] (equivalent amount of MPO, clinical imaging strength) was found to be 1.7 times. For the same compound, in assay [3] (setting [4]), the “increase in the longitudinal relaxation rate” value came out at 30% and the “increase in the transverse relaxation rate” value is 20%. In assay [3] (at 24 hours), this compound gave a longitudinal relaxation rate of 6.9 s⁻¹ and a transverse relaxation rate of 10.6 s⁻¹. For the same compound, in assay [3] (starting value), the longitudinal relaxation rate stood at 5.3 s⁻¹ and the transverse relaxation rate stood at 8.8 s⁻¹.
